In patent US20250332173A1, “COMPOUNDS AND METHODS FOR MODULATING NUCLEIC ACID SPLICING” (REMIX THERAPEUTICS INC., priority 2021, published 2025):
Where a name gives a salt, the structure may show the parent alone. Read-outs that look alike come from different tables or passages of the source.

System: MYB mRNA
Assay: RT-qPCR splicing assay, MYB canonical junction (CJ) and alternative junction (AJ) mRNA
Assay type: cell-based, human
Settings: Homo sapiens; for AC50: increase in MYB alternative junction (AJ) mRNA, read-out: MYB AJ AC50
Summary of the method: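 Following a 24-hour incubation of A673 or K562 cells with serially diluted compound (3-fold steps, highest final 10 uM), the lysates undergo cDNA synthesis plus qPCR. Canonical and alternative junctions are each quantified against PPIA, GAPDH or GUSB.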

[1] = Table 5 panel, canonical junction qPCR, compound concentration having 50% response in CJ decrease, read-out: MYB IC50 (decrease in CJ mRNA levels)
[2] = decrease in MYB canonical junction (CJ) mRNA, RT-qPCR, read-out: MYB CJ IC50

| Compound | IC50 [1] | IC50 [2] | AC50 (RT-qPCR) |
| --- | --- | --- | --- |
| Cc1cn2nc(-c3ccc4c(=O)n(C5CCNCC5)ccc4c3)cc(Cc3nnc[nH]3)c2n1 [Compound 535, 6-[2-methyl-8-(4H-1,2,4-triazol-3-ylmethyl)imidazo[1,2-b]pyridazin-6-yl]-2-(4-piperidyl) isoquinolin-1-one] | 1 to 10 µM | 1 to 10 µM | 1 to 10 µM |
| Cc1cn2cc(-c3cc(F)c4c(=O)n([C@@H]5CNC[C@@H]5C)ccc4c3)cc(F)c2n1 [Compound 653, 8-fluoro-6-(8-fluoro-2-methyl-imidazo[1,2-a]pyridin-6-yl)-2-[(3S,4S)-4-methylpyrrolidin-3-yl]isoquinolin-1-one] | 1 to 10 µM | 1 to 10 µM | 1 to 10 µM |
| Cc1cn2nc(-c3ccc4c(=O)n(C5CCNCC5)ccc4c3)cc(CO)c2n1 [Compound 525, 6-[8-(hydroxymethyl)-2-methyl-imidazo[1,2-b]pyridazin-6-yl]-2-(4-piperidyl) isoquinolin-1-one] | 0.1 to 1 µM | < 0.1 µM | 0.1 to 1 µM |
| Cc1nc2c(C)cc(-c3cc(F)c4c(=O)n(C5CCNC6(CC6)C5)ncc4c3)cc2o1 (stereo not drawn) [Compound 555] | 0.1 to 1 µM | 0.1 to 1 µM | 0.1 to 1 µM |
| Cc1cn2cc(-c3cc(F)c4c(=O)n([C@H]5CNC[C@@H]5F)ccc4c3)cc(F)c2n1 [Compound 644] | 0.1 to 1 µM | 1 to 10 µM | 0.1 to 1 µM |
| CCN1CCC(n2ncc3cc(-c4cc(C)c5nc(C)cn5n4)cc(F)c3c2=O)CC1 [Compound 537] | 0.1 to 1 µM | 0.1 to 1 µM | 0.1 to 1 µM |
| Cc1cn2nc(-c3ccc4c(=O)n(C5CCNCC5)ccc4c3)cc(Oc3ccccc3)c2n1 [Compound 519, 6-(2-methyl-8-phenoxy-imidazo[1,2-b]pyridazin-6-yl)-2-(4-piperidyl)isoquinolin-1-one] | < 0.1 µM | < 0.1 µM | < 0.1 µM |
| Cc1cn2nc(-c3ccc4c(=O)n(C5CCNCC5)ccc4c3)cc(C(=O)N(C)C)c2n1 [Compound 524, N, N, 2-trimethyl-6-[1-oxo-2-(4-piperidyl)-6-isoquinolyl]imidazo[1,2-b]pyridazine-8-carboxamide] | > 10 µM | > 10 µM | > 10 µM |
| CC(=O)Nc1cc(-c2cc(C)c3nc(C)cn3n2)cc2ccn([C@@H]3CCNC3)c(=O)c12 [Compound 650, N-[6-(2,8-dimethylimidazo[1,2-b]pyridazin-6-yl)-1-oxo-2-[(3R)-pyrrolidin-3-yl]-8-isoquinolyl]acetamide] | > 10 µM | > 10 µM | > 10 µM |
| Cc1cn2nc(-c3cc4ccn([C@@H]5CCNC5)c(=O)c4cc3O)cc(C)c2n1 [Compound 640, 6-(2,8-dimethylimidazo[1,2-b]pyridazin-6-yl)-7-hydroxy-2-[(3R)-pyrrolidin-3-yl]isoquinolin-1-one] | 0.1 to 1 µM | 0.1 to 1 µM | 0.1 to 1 µM |
| Cc1cn2nc(-c3cc(F)c4c(=O)n([C@@H]5CCN(C)C6(CC6)C5)ncc4c3)cc(C)c2n1 [Compound 637] | < 0.1 µM | < 0.1 µM | < 0.1 µM |
| Cc1cn2nc(-c3ccc4c(=O)n(C5CCNCC5)ccc4c3)cc(CC(N)=O)c2n1 [Compound 528, 2-(2-methyl-6-(1-oxo-2-(piperidin-4-yl)-1,2-dihydroisoquinolin-6-yl)imidazo[1,2-b]pyridazin-8-yl) acetamide] | 1 to 10 µM | 1 to 10 µM | 1 to 10 µM |
| CCc1cn(C2CCNCC2)c(=O)c2c(F)cc(-c3cc(F)c4nc(C)cn4c3)cc12 [Compound 558, 4-ethyl-8-fluoro-6-{8-fluoro-2-methylimidazo[1,2-a]pyridin-6-yl}-2-(piperidin-4-yl)isoquinolin-1-one] | 0.1 to 1 µM | 0.1 to 1 µM | 0.1 to 1 µM |
| Cc1cn2cc(-c3cc(F)c4c(=O)n(C5CCNC6(CC6)C5)ncc4c3)cc(Cl)c2n1 (stereo not drawn) [Compound 556] | 0.1 to 1 µM | 0.1 to 1 µM | 0.1 to 1 µM |
| CCOC(=O)c1cc(-c2ccc3c(=O)n(C4CCNCC4)ccc3c2)nn2cc(C)nc12 [Compound 529, ethyl 2-methyl-6-[1-oxo-2-(4-piperidyl)-6-isoquinolyl]imidazo[1,2-b]pyridazine-8-carboxylate] | 0.1 to 1 µM | 0.1 to 1 µM | 0.1 to 1 µM |
| CCN1CCC(n2ncc3cc(-c4cc(C)c5nc(C)cn5n4)cc(O)c3c2=O)CC1 [Compound 542] | < 0.1 µM | < 0.1 µM | < 0.1 µM |
| Cc1cn2nc(-c3ccc4c(=O)n(C5CCNCC5)ccc4c3)cc(C(N)=O)c2n1 [Compound 523, 2-methyl-6-[1-oxo-2-(4-piperidyl)-6-isoquinolyl]imidazo[1,2-b]pyridazine-8-carboxamide] | 1 to 10 µM | 1 to 10 µM | 1 to 10 µM |
| CN1CCN(c2ccc3c(=O)n(-c4ccc5cn(C)nc5c4)cnc3c2)CC1 [Compound 178] | > 10 µM | > 10 µM | > 10 µM |
| CNC(=O)Cc1cc(-c2ccc3c(=O)n(C4CCNCC4)ccc3c2)nn2cc(C)nc12 [Compound 534, N-methyl-2-[2-methyl-6-[1-oxo-2-(4-piperidyl)-6-isoquinolyl]imidazo[1,2-b]pyridazin-8-yl]acetamide] | 1 to 10 µM | 1 to 10 µM | 1 to 10 µM |
| Cc1cn2nc(-c3cc(F)c4c(=O)n(C5CCN(CCF)CC5)ncc4c3)cc(C)c2n1 [Compound 538] | 0.1 to 1 µM | 0.1 to 1 µM | 0.1 to 1 µM |
| Cc1cn2nc(-c3ccc4c(=O)n(C5CCNCC5)ncc4c3)cc(Oc3ccccc3)c2n1 [Compound 549, 6-(2-methyl-8-phenoxy-imidazo[1,2-b]pyridazin-6-yl)-2-(4-piperidyl) phthalazin-1-one] | < 0.1 µM | 0.1 to 1 µM | < 0.1 µM |
| Cc1cn2nc(-c3ccc4c(=O)n(C5CCNCC5)ccc4c3)cc(Oc3ccc(F)cc3)c2n1 [Compound 546, 6-[8-(4-fluorophenoxy)-2-methyl-imidazo[1,2-b]pyridazin-6-yl]-2-(4-piperidyl) isoquinolin-1-one; hydrochloride] | < 0.1 µM | < 0.1 µM | < 0.1 µM |
| CNc1cc(-c2cc(C)c3nc(C)cn3n2)cc2ccn([C@@H]3CCNC3)c(=O)c12 [Compound 648, 6-(2,8-dimethylimidazo[1,2-b]pyridazin-6-yl)-8-(methylamino)-2-[(3R)-pyrrolidin-3-yl]isoquinolin-1-one] | > 10 µM | > 10 µM | > 10 µM |
| Cn1ccc2nn(-c3ccc4c(=O)n(C5CCNCC5)ccc4c3)cc2c1=O [Compound 522, 6-{5-methyl-4-oxopyrazolo[4,3-c]pyridin-2-yl}-2-(piperidin-4-yl)isoquinolin-1-one] | > 10 µM | > 10 µM | > 10 µM |
| CC(=O)Nc1cc(-c2cc(C)c3nc(C)cn3n2)cc2ccn([C@H]3CCNC3)c(=O)c12 [Compound 649, N-[6-(2,8-dimethylimidazo[1,2-b]pyridazin-6-yl)-1-oxo-2-[(3S)-pyrrolidin-3-yl]-8-isoquinolyl]acetamide] | 1 to 10 µM | 1 to 10 µM | 1 to 10 µM |
| Cc1nc2c(C)cc(-c3ccc4c(=O)n(C5CCNC6(CC6)C5)ncc4c3)cc2o1 (stereo not drawn) [Compound 513] | 1 to 10 µM | 1 to 10 µM | 1 to 10 µM |
